Results published in patent US6677308B1, “Meta-substituted phenylene sulphonamide derivatives” (G. D. Searle & Co., priority 1996, dated 2004).
Structures can show the parent of a compound that is named as a salt. Where two headings read alike, the source gives them in different places.

How the values were obtained:
[1] = molecular target: T1, Human vitronectin receptor (αvβ3) (Homo sapiens, UniProt P05106+P06756); experiment: Vitronectin adhesion assay (solid phase receptor assay, competition with biotinylated vitronectin); format: binding
T1 construct: Human vitronectin receptor (αvβ3) was purified from human placenta as previously described; from tissue; host or cells: human placenta
Description: Vitronectin Adhesion Assay
Human vitronectin receptor (αvβ3) was purified from human placenta as previously described [Pytela et al., Methods in Enzymology, 144:475-489 (1987)]. Human vitronectin was purified from fresh frozen plasma as previously described [Yatohgo et al., Cell Structure and Function, 13:281-292 (1988)]. Biotinylated human vitronectin was prepared by coupling NHS-biotin from Pierce Chemical Company (Rockford, Ill.) to purified vitronectin as previously described [Charo et al., J. Biol. Chem., 266(3):1415-1421 (1991)]. Assay buffer, OPD substrate tablets, and RIA grade BSA were obtained from Sigma (St. Louis, Mo.). Anti-biotin antibody was obtained from Calbiochem (La Jolla, Calif.). Linbro microtiter plates were obtained from Flow Labs (McLean, Va.). ADP reagent was obtained from Sigma (St. Louis, Mo.).
(§1) Solid Phase Receptor Assays
This assay was essentially the same as previously reported [Niiya et al., Blood, 70:475-483 (1987)]. The purified human vitronectin receptor (αvβ3) was diluted from stock solutions to 1.0 μg/mL in Tris-buffered saline containing 1.0 mM Ca^++, Mg^++, and Mn^++, pH 7.4 (TBS^+++). The diluted receptor was immediately transferred to Linbro microtiter plates at 100 μL/well (100 ng receptor/well). The plates were sealed and incubated overnight at 4° C. to allow the receptor to bind to the wells. All remaining steps were at room temperature. The assay plates were emptied and 200 μL of 1% RIA grade BSA in TBS^+++ (TBS^+++/BSA) were added to block exposed plastic surfaces. Following a 2 hour incubation, the assay plates were washed with TBS^+++ using a 96 well plate washer. Logarithmic serial dilution of the test compound and controls were made starting at a stock concentration of 2 mM and using 2 nM biotinylated vitronectin in TBS^+++/BSA as the diluent. This premixing of labeled ligand with test (or control) ligand, and subsequent transfer of 50 μL aliquots to the assay plate was carried out with a CETUS Propette robot; the final concentration of the labeled ligand was 1 nM and the highest concentration of test compound was 1.0×10^−4 M. The competition occurred for two hours after which all wells were washed with a plate washer as before. Affinity purified horseradish peroxidase labeled goat anti-biotin antibody was diluted 1:3000 in TBS^+++/BSA and 125 μL were added to each well. After 30 minutes, the plates were washed and incubated with OPD/H2O2 substrate in 100 mM/L Citrate buffer, pH 5.0. The plate was read with a microtiter plate reader at a wavelength of 450 nm and when the maximum-binding control wells reached an absorbance of about 1.0, the final A450 were recorded for analysis. The data were analyzed using a macro written for use with the EXCEL™ spreadsheet program. The mean, standard deviation, and %CV were determined for duplicate concentrations. The mean A450 values were normalized to the mean of four maximum-binding controls (no competitor added) (B-MAX). The normalized values were subjected to a four parameter curve fit algorithm [Rodbard et al., Int.

[2] = molecular target: T2, Human fibrinogen receptor (αIIbβ3) (Homo sapiens, UniProt P05106+P08514); experiment: Purified IIb/IIIa receptor assay (solid phase receptor assay, competition with biotinylated vitronectin); format: binding; conditions: purified human αIIbβ3 from platelets; 1 nM biotinylated vitronectin; highest concentration 1.0×10^−4 M
T2 construct: Human fibrinogen receptor (αIIbβ3) was purified from outdated platelets; from tissue; host or cells: outdated (human) platelets
Text: Purified IIb/IIIa Receptor Assay
Human fibrinogen receptor (αIIbβ3) was purified from outdated platelets. (Pytela, R., Pierschbacher, M. D., Argraves, S., Suzuki, S., and Rouslahti, E. “Arginine-Glycine-Aspartic acid adhesion receptors”, Methods in Enzymology 144(1987):475-489.) Human vitronectin was purified from fresh frozen plasma as described in Yatohgo, T., Izumi, M., Kashiwagi, H., and Hayashi, M., “Novel purification of vitronectin from human plasma by heparin affinity chromatography,” Cell Structure and Function 13(1988):281-292. Biotinylated human vitronectin was prepared by coupling NHS-biotin from Pierce Chemical Company (Rockford, Ill.) to purified vitronectin as previously described. (Charo, I. F., Nannizzi, L., Phillips, D. R., Hsu, M. A., Scarborough, R. M., “Inhibition of fibrinogen binding to GP IIb/IIIa by a GP IIIa peptide”, J. Biol. Chem. 266(3)(1991): 1415-1421.) Assay buffer, OPD substrate tablets, and RIA grade BSA were obtained from Sigma (St. Louis, Mo.). Anti-biotin antibody was obtained from Calbiochem (La Jolla, Calif.). Linbro microtiter plates were obtained from Flow Labs (McLean, Va.). ADP reagent was obtained from Sigma (St. Louis, Mo.).
as §1
This assay is essentially the same reported in Niiya, K., Hodson, E., Bader, R., Byers-Ward, V. Koziol, J. A., Plow, E. F. and Ruggeri, Z. M., “Increased surface expression of the membrane glycoprotein IIb/IIIa complex induced by platelet activation: Relationships to the binding of fibrinogen and platelet aggregation”, Blood 70(1987):475-483. The purified human fibrinogen receptor (αIIbβ3) was diluted from stock solutions to 1.0 μg/mL in Tris-buffered saline containing 1.0 mM Ca^++, Mg^++, and Mn^++, pH 7.4 (TBS^+++). The diluted receptor was immediately transferred to Linbro microtiter plates at 100 μL/well (100 ng receptor/well). The plates were sealed and incubated overnight at 4° C. to allow the receptor to bind to the wells. All remaining steps were at room temperature. The assay plates were emptied and 200 μL of 1% RIA grade BSA in TBS^+++ (TBS^+++/BSA) were added to block exposed plastic surfaces. Following a 2 hour incubation, the assay plates were washed with TBS^+++ using a 96 well plate washer. Logarithmic serial dilution of the test compound and controls were made starting at a stock concentration of 2 mM and using 2 nM biotinylated vitronectin in TBS^+++/BSA as the diluent. This premixing of labeled ligand with test (or control) ligand, and subsequent transfer of 50 μL aliquots to the assay plate was carried out with a CETUS Propette robot; the final concentration of the labeled ligand was 1 nM and the highest concentration of test compound was 1.0×10^−4 M. The competition occurred for two hours after which all wells were washed with a plate washer as before. Affinity purified horseradish peroxidase labeled goat anti-biotin antibody was diluted 1:3000 in TBS^+++/BSA and 125 μL were added to each well. After 30 minutes, the plates were washed and incubated with […] substrate in 100 mM/L citrate buffer, pH 5.0. The plate was read with a microtiter plate reader at a wavelength of 450 nm and when the maximum-binding control wells reached an absorbance of about 1.0, the final A450 were recorded for analysis. The data were analyzed using a macro written for use with the EXCEL™ spreadsheet program. The mean, standard deviation, and %CV were determined for duplicate concentrations. The mean A450 values were normalized to the mean of four maximum-binding controls (no competitor added) (B-MAX). The normalized values were subjected to a four parameter curve fit algorithm, [Robard et al., Int.

[3] = tested on: Human platelet rich plasma; experiment: Human platelet rich plasma assay (ADP induced platelet aggregation); format: cell-based; conditions: concentration of half-maximal inhibition, read-out: Human PRP
Description: Human Platelet Rich Plasma Assays
Healthy aspirin free donors were selected from a pool of volunteers. The harvesting of platelet rich plasma and subsequent ADP induced platelet aggregation assays were performed as described in Zucker, M. B., “Platelet Aggregation Measured by the Photometric Method”, Methods in Enzymology 169(1989):117-133. Standard venipuncture techniques using a butterfly allowed the withdrawal of 45 mL of whole blood into a 60 mL syringe containing 5 mL of 3.8% trisodium citrate. Following thorough mixing in the syringe, the anti-coagulated whole blood was transferred to a 50 mL conical polyethylene tube. The blood was centrifuged at room temperature for 12 minutes at 200×g to sediment non-platelet cells. Platelet rich plasma was removed to a polyethylene tube and stored at room temperature until used. Platelet poor plasma was obtained from a second centrifugation of the remaining blood at 2000×g for 15 minutes. Platelet counts are typically 300,000 to 500,000 per microliter. Platelet rich plasma (0.45 mL) was aliquoted into siliconized cuvettes and stirred (1100 rpm) at 37° C. for 1 minute prior to adding 50 uL of pre-diluted test compound. After 1 minute of mixing, aggregation was initiated by the addition of 50 uL of 200 uM ADP. Aggregation was recorded for 3 minutes in a Payton dual channel aggregometer (Payton Scientific, Buffalo, N.Y.). […]

[4] = purified human αvβ3 from placenta, 1 nM biotinylated vitronectin, highest concentration 1.0×10^−4 M, read-out: AvB3 IC50

IC50 [2] [nM]	IC50 [1, 4] [nM]	Molecule	IC50 ([1]; positive control included on each plate, read-out: IC50 (αvβ3 antagonist, positive control)) [nM]	IC50 [3] [nM]
		β-[[2-[[5-[(aminoiminomethyl)amino]-1-oxopentyl]amino]-1-oxoethyl]amino]-3-pyridinepropanoic acid [reference compound]	3 to 10	
987	659	N=C(N)Nc1cccc(C(=O)Nc2cccc(S(=O)(=O)NC(CC(=O)O)c3cc(Cl)cc(Cl)c3)c2)c1 (racemic) [Example 4, (±) β-[[[3-[[[3-[(Aminoiminomethyl)amino]phenyl]-carbonyl]amino]phenyl]sulfonyl]amino]-3,5-dichlorobenzene Propanoic Acid, Trifluoroacetate Salt]		
418	15	C#C[C@H](CC(=O)O)NS(=O)(=O)c1cccc(NC(=O)c2cccc(NC3=NCCN3)c2)c1 [Example 7, 3S-[[[3-[[[3-[(4,5-Dihydro-1H-imidazol-2-yl)amino]-phenyl]carbonyl]amino]phenyl]sulfonyl]amino]-4-pentynoic Acid, Trifluoroacetate Salt]		
24.7	4.66	N=C(N)Nc1cccc(C(=O)Nc2cccc(S(=O)(=O)NC(CC(=O)O)c3cccnc3)c2)c1 (stereo not drawn) [Example 5, β-[[[3-[[[3-[(Aminoiminomethyl)amino]phenyl]-carbonyl]amino]phenyl]sulfonyl]amino]pyridine-3-propanoic Acid, tris(Trifluoroacetate) Salt]		
93.6	29.3	N=C(N)Nc1cccc(S(=O)(=O)Nc2cccc(S(=O)(=O)NC(CC(=O)O)c3ccccc3)c2)c1 (stereo not drawn) [Example 9, β-[[[3-[[[3-[(Aminoiminomethyl)amino]phenyl]-sulfonyl]amino]phenyl]sulfonyl]amino]phenyl-propanoic Acid, Trifluoroacetate Salt]		
11.6	5.34	C=CC(CC(=O)O)NS(=O)(=O)c1cccc(NC(=O)c2cccc(NC(=N)N)c2)c1 (racemic) [Example 3, (±) 3-[[[3-[[[3-[(Aminoiminomethyl)amino]phenyl]-carbonyl]amino]phenyl]sulfonyl]amino]-4-pentenoic Acid, Trifluoroacetate Salt]		
38.2	11.3	C#CC(CC(=O)O)NS(=O)(=O)c1cccc(NC(=O)c2cccc(NC(=N)N)c2)c1 (stereo not drawn) [Example 8, 3-[[[3-[[[3-[(Aminoiminomethyl)amino]phenyl]-carbonyl]amino]phenyl]sulfonyl]amino]-4-pentynoic Acid, Trifluoroacetate Salt]		
3920	183	N=C(N)Nc1cccc(C(=O)Nc2cccc(S(=O)(=O)N3CCCCC3CC(=O)O)c2)c1 (stereo not drawn) [Example 6, 1-[[3-[[[3-[(Aminoiminomethyl)amino]phenyl]carbonyl]-amino]phenyl]sulfonyl]piperidine-2-acetic Acid, Trifluoroacetate Salt]		

Molecule	IC50 [2] [nM]	IC50 [1, 4] [nM]	IC50 ([1]; positive control included on each plate, read-out: IC50 (αvβ3 antagonist, positive control)) [nM]	IC50 [3] [nM]
N=C(N)Nc1cccc(C(=O)Nc2cccc(S(=O)(=O)NC(CC(=O)O)c3ccccc3)c2)c1 (stereo not drawn) [Example 1, β-[[[3-[[[3-[(Aminoiminomethyl)amino]phenyl]carbonyl]amino]phenyl]sulfonyl]amino]-benzenepropanoic Acid, Trifluoroacetate Salt]	11.3	1.66		> 200000
